From patent publication US20240279710A1, “FLUORESCENT PROBES” (TOHOKU TECHNO ARCH CO., LTD., priority 2021, published 2024)

Legend:
calpain = experiment: Combined use with calpain inhibitor in rat NMDA model (Compound 19 as probe); assay type: in vivo
Method: (§1) Carboxymethylcellulose sodium was dissolved in distilled water to prepare a 0.5% (w/v) CMC solution. An inhibitor-containing CMC solution was prepared by suspending SNJ-1945 in the 0.5% (w/v) CMC solution so that its concentration became 2.5% (w/v). Rats were each subjected to general anesthesia with isoflurane, and NMDA (10 mM, 2 μL) was administered into an eye of the rat. 2 Hours after the administration of NMDA, the inhibitor-containing CMC solution was intraperitoneally administered to the rat so that the dose of SNJ-1945 became 100 mg/kg body weight. 4 Hours after the administration of the inhibitor (6 hours after the administration of NMDA), the rat was anesthetized with isoflurane again, and Compound 19 (15 μM, 4 μL) was administered into the eye. Images of an ocular fundus were taken with F-10 20 minutes to 30 minutes after the administration of Compound 19. In a control group (N=8), the same operations as those in an SNJ-1945-administered group (N=8) except the following were performed: the 0.5% (w/v) CMC solution was administered instead of the inhibitor-containing CMC solution.
as §1, with “orally” for “intraperitoneally”, “(N=7),” for “(N=8),”
Carboxymethylcellulose sodium was dissolved in distilled water to prepare a 0.5% (w/v) CMC solution. An inhibitor-containing CMC solution was prepared by suspending SNJ-1945 in the 0.5% (w/v) CMC solution so that its concentration became 2.5% (w/v). The inhibitor-containing CMC solution was intraperitoneally administered to each of rats so that the dose of SNJ-1945 became 100 mg/kg body weight. 2 Hours after the intraperitoneal administration, the rat was subjected to general anesthesia with isoflurane, and NMDA (10 mM, 2 μL) was administered into an eye thereof. […]

SH-SY5Y cells = experiment: Combined use with calpain inhibitor in live cell imaging; assay type: cell-based; conditions: inhibitor 10 μM, 5 μM Compound 19, SH-SY5Y cells; FIG. 30
Method: Whether or not the improvement in enzymatic reactivity between the compound of the present invention and a calpain confirmed by the above-mentioned experiment remained the same even in a cell was verified. Calpain activity imaging in SH-SY5Y cells was performed on each of Compounds 16 and 19. Specifically, the SH-SY5Y cells (American Type Culture Collection, VA, USA) were cultured in a mixed medium of Dulbecco's modified eagle medium and Ham's F-12 medium (DMEM/F-12; Thermo Fisher Scientific, Inc.) (containing 10% fetal bovine serum (FBS; Thermo Fisher Scientific, Inc., MA, USA) and 100 U/mL penicillin-100 μg/mL streptomycin (PS; Thermo Fisher Scientific, Inc.)) under the conditions of 37° C. and 5% CO2-95% air. 6×10^4 to 8×10^4 Cells/well of the cells were seeded in a multiwell plate (μ-Plate 96 Well; ibidi, Grafelfing, Germany) coated with poly-D-lysine (Thermo Fisher Scientific, Inc.) and laminin (BD Biosciences, CA, USA), and were preincubated in a culture solution. Immediately after the removal of the culture solution in the wells, 200 μL of an assay solution (a culture solution containing a 5 μM probe) was added thereto, and the cells were incubated under the conditions of 37° C. and 5% CO2-95% air. 10 Minutes after that, a bright field image and a fluorescence image were taken with a confocal microscope (LSM 710, Carl Zeiss AG, Oberkochen, Germany). […]

COCCOCCOC(=O)N[C@@H](CC(C)C)C(=O)N[C@@H](Cc1ccccc1)C(=O)C(=O)NC1CC1 [SNJ-1945]
number of HMRG-positive nerve cells compared to control group (calpain; 100 mg/kg intraperitoneally 2 hours after NMDA, Compound 19 (15 μM, 4 μL) 4 hours later, FIG. 32): significantly reduced | number of HMRG-positive nerve cells compared to control group (calpain; 100 mg/kg intraperitoneally 2 hours before NMDA, Compound 19 (15 μM, 4 μL) 6 hours after NMDA, FIG. 34): significantly reduced | number of HMRG-positive nerve cells compared to control group (calpain; 100 mg/kg orally 2 hours after NMDA, Compound 19 (15 μM, 4 μL) 4 hours later, FIG. 33): significantly reduced | number of HMRG-positive nerve cells compared to group administered any other calpain inhibitor (C2I, MDL 28,170, PD-151746) (calpain; orally as in Example 16, FIG. 35): significantly reduced | intracellular fluorescence intensity (Compound 19 probe) with vs without inhibitor (SH-SY5Y cells): attenuates
